{TEG} = triethylene glycol 5' moiety of the PMO, as defined in the publication
Columns and labels:
Klebsiella pneuomoniae = assay: MIC of meropenem with added NDM-1-targeted PPMO; type: cell-based; settings: without PPMO, data not shown
[1] = tested on: adeA-expressing Acinetobacter baumanii; assay: MIC of gentamicin, tobramycin and tetracycline with added adeA-targeted PPMO (CLSI microdilution); type: cell-based; settings: concentration dependent
B. multivorans = assay: Aerosol PPMO in pulmonary infection model, lung burden; type: in vivo; settings: single 300 μg aerosol dose 6 hours post-infection; CGD mice; 24 hours after infection
Description: Chronic granulomatous disease (CGD) mice were used as a Bcc infection model. An Aerogen nebulizer was used to deliver either scrambled (Scr) PPMO ([…]) or acpP PPMO (PPMO #15, Table 2C, 300 μg or 30 μg) as a one-time dose 6 hours post-infection. Mice were euthanized 24 hours after infection and lung burden was determined as CFU/g.
Delivering PPMOs directly to the lung in the setting of chronic pulmonary infections would be useful. Chronic granulomatous disease (CGD) mice were used as a Bcc infection model. These mice develop significant morbidity and mortality when infected with various Bcc strains. Mice were infected intranasally with a clinical B. multivorans isolate (FIG. 15). An Aerogen nebulizer was used to deliver either scrambled (Scr) PPMO (300 μg) or acpP PPMO (PPMO #15, 300 μg or 30 μg) as a one-time dose 6 hours post-infection. The acpP-targeted PPMO has the following sequence: GTCCATTACCC (SEQ ID NO: 25). The PPMO was conjugated at its 5′ end to the C-terminal β-alanine residue of (RFF)3RXB (SEQ ID NO: 41). Mice were euthanized 24 hours after infection and lung burden was determined. The single 300 μg dose of the acpP PPMO reduced the lung burden by 93% and was a statistically significant decrease. Aerosol delivery of PPMOs is a viable therapeutic strategy and importantly, this is the first time that nebulized delivery of Bcc PPMOs has been attempted.

B. cenocepacia K56-2 [2] = assay: Bcc growth in artificial CF sputum; type: cell-based
Description: B. cenocepacia K56-2 was incubated alone or in the presence of either a scrambled sequence (Scr) placebo PPMO or acpP PPMO (PPMO #15, Table 2C) at 10 μM or 20 μM concentration. Media or PPMO was dosed at 2, 8 and 12 hours. Samples were plated at 24 hours and CFU/ml was determined.
PPMOs were tested to determine whether they retained their activity in sputum. Using a well-described method for making “artificial CF sputum,” experiments were conducted to see whether a PPMO could reduce the burden of Bcc in this environment (FIG. 12). B. cenocepacia K56-2 was incubated alone or in the presence of either a scrambled-sequence (Scr) placebo PPMO or acpP PPMO (PPMO #15). The acpP-targeted PPMO has the following sequence: GTCCATTACCC (PPMO #15; SEQ ID NO: 25). The PPMO was conjugated at its 5′ end to the C-terminal β-alanine residue of (RFF)3RXB (SEQ ID NO: 41). Media or PPMO was dosed at 2, 8 and 12 hours. Samples were plated at 24 hours and CFU/ml was determined. The acpP PPMO was able to reduce the organism burden (both at 10 and 20 μM dosing). At 10 μM dosing, there was an approximately 2-log reduction in CFU/ml by 24-hours compared to no treatment control. At 20 μM dosing, there was a >3-log reduction seen. This reduction was apparent as early as 8 hours in the 20 μM group and 12 hours in the 10 μM group. These experiments indicate that PPMOs remain active even in the thick viscous sputum that is seen in CF patients. This is the first time that activity of PPMOs has been tested in sputum.

B. cenocepacia J2315 = assay: MBEC peg biofilm assay, crystal violet and confocal microscopy; type: cell-based; settings: 10 μM
Description: B. cenocepacia J2315 was grown utilizing MBEC biofilm assay plates for 48 hours in the presence of either acpP PPMO (10 μM), scrambled PPMO (10 μM), peptide or media alone. Biofilm production was measure utilizing a crystal violet method.
The pegs were moved to fresh media containing either nothing, the Scrambled (Scr) control PPMO at 10 μM concentration, or the acpP PPMO at 10 μM concentration. The MBEC pegs were incubated for another 48 hours and then stained with fluorescent green peanut-agglutinin stain for the biofilm and imaged on confocal microscopy.
The formation of biofilm is a significant virulence trait and is utilized by both P. aeruginosa and the Bcc. Bcc biofilms were grown and PPMOs were tested for their ability to both prevent biofilm formation and to deconstruct existing biofilms. B. cenocepacia J2315 (a genome sequenced, epidemic CF isolate) was grown utilizing MBEC biofilm assay plates which contain a peg that grows reproducible biofilms from day to day. J2315 was grown for 48 hours in the presence of either acpP PPMO (10 μM), scrambled PPMO (10 μM), peptide or media alone (FIG. 13). The acpP-targeted PPMO (PPMO #19) has the following sequence: CCATTACCCCT (SEQ ID NO: 27). The PPMO was conjugated at its 5′ end to the beta-alanine residue of (RFF)3RXB (SEQ ID NO: 41). Biofilm production was measured utilizing a crystal violet method. […]

B. cenocepacia H14277 = assay: PPMO MIC, pan-resistant strain (FIG. 10); type: cell-based
Description: In B. cenocepacia K56-2 (a genome-sequenced clinical CF isolate; Panel A) all three PPMOs caused a significant reduction of growth with one PPMO (PPMO #19; SEQ ID NO: 27; 16 μM) causing>3-log reduction of growth compared to the starting inoculum, a strong bactericidal effect. Importantly, this effect was seen even in pan-resistant strains of B. cenocepacia (HI4277, a pan-resistant outbreak isolate from CF patients; FIG. 11, Panel B). […] The MIC of PPMO #19 was 8 μM in H14277 (FIG. 10), illustrating that PPMOs' ability to inhibit growth is not dependent on the underlying level of antibiotic resistance in any particular strain, an important finding with positive implications for this approach.

B. cenocepacia HI4277 = assay: 24 hour growth with acpP PPMOs (bactericidal test), pan-resistant strain; type: cell-based; settings: FIG. 11 Panel B
Description: (§1) Two different isolates of B. cenocepacia were incubated for 24 hours in the presence or absence of different acpP PPMOs. All three acpP PPMOs caused a significant reduction of growth in the clinical CF isolate B. cenocepacia K56-2 (Panel A) and this effect was also seen for the pan-resistant strain B. cenocepacia H14277 (Panel B).
(§2) Many members of the Bcc are intrinsically antibiotic resistant making treatment difficult. B. cenocepacia is one of the most common species encountered by cystic fibrosis (CF) patients. Two different isolates of B. cenocepacia were incubated for 24 hours in the presence or absence of different acpP PPMOs (FIG. 11).

39 Bcc clinical isolates = assay: PPMO MIC against a panel of 39 Bcc clinical isolates; type: cell-based, Burkholderia cepacia complex; settings: panel of 39 isolates; FIG. 10
Description: A variety of Bcc isolates were tested, including clinical isolates obtained from various body sites with varying levels of antibiotic resistance. The strain bank included 39 isolates that comprised the most frequently encountered species that have been reported to cause human disease. […] All 6 of these PPMOs targeted AcpP (an acyl carrier protein associated with fatty acid biosynthesis). Differences in the 6 PPMOs related to alternative positioning sites on the target mRNA.

B. cenocepacia K56-2 [3] = assay: 24 hour growth with acpP PPMOs (bactericidal test); type: cell-based; settings: 16 μM, FIG. 11 Panel A
Description: as §1, §2

Molecule `C[C@@H](O)[C@H]1C(=O)N2C(C(=O)O)=C(S[C@@H]3CN[C@H](C(=O)N(C)C)C3)[C@H](C)[C@H]12` [meropenem] has an MIC (Klebsiella pneuomoniae) of about 64 µM.

With “PPMO #5: adeA-targeted PMO ATA CTG TCC AA (SEQ ID NO: 15); 5′ TEG; 3′ (RXR)4XB- peptide (antisense ATACTGTCCAA; all phosphorodiamidate morpholino (PMO), 5' {TEG}; 3' end conjugated to (RXR)4XB peptide via beta-alanine)” the MIC of gentamicin ([1]; FIG. 2) was “significantly reduced”, the MIC of tobramycin ([1]; FIG. 3) was “significantly reduced” and the MIC of tetracycline ([1]; FIG. 4) was “significantly reduced”.

With “PPMO #15: acpP-targeted PMO GTCCATTACCC (SEQ ID NO: 25); 5′ (RFF)3RXB- peptide; 3′ H (all phosphorodiamidate morpholino (PMO); 5' end conjugated to (RFF)3RXB peptide via beta-alanine, further chemistry not fully specified)” the “reduced the lung burden” value (B. multivorans) was 93%, the “reduction in CFU/ml compared to no treatment control” value (B. cenocepacia K56-2 [2]; 10 μM dosing at 2, 8 and 12 hours, by 24-hours) was “approximately 2 log” and the “time at which the reduction was apparent” value (B. cenocepacia K56-2 [2]; 10 μM group) was 12 h. For the same molecule, the “reduction in CFU/ml compared to no treatment control” value (B. cenocepacia K56-2 [2]; 20 μM dosing at 2, 8 and 12 hours, 24 hours) was over 3 log and the “time at which the reduction was apparent” value (B. cenocepacia K56-2 [2]; 20 μM group) was 8 h.

In the case of “PPMO #19: acpP-targeted PMO CCATTACCCCT (SEQ ID NO: 27); 5′ (RFF)3RXB- peptide; 3′ H (all phosphorodiamidate morpholino (PMO); 5' end conjugated to (RFF)3RXB peptide via beta-alanine, further chemistry not fully specified)”, the “reduced biofilm formation compared to controls” value (B. cenocepacia J2315; 48 hours, crystal violet, FIG. 13) is reported as over 50%, the “amount of existing biofilm present” value (B. cenocepacia J2315; 48 h biofilm then 48 hours more, confocal microscopy and crystal violet, FIG. 14C) is reported as “significantly reduced” and the MIC (B. cenocepacia H14277) is reported as 8 µM. The bactericidal effect (B. cenocepacia HI4277) was “bactericidal”, the IC75 (39 Bcc clinical isolates) was 4 µM and the “reduction of growth compared to the starting inoculum” value (B. cenocepacia K56-2 [3]) was over 3 log.

— patent US11021706B2, “Antisense antibacterial compounds and methods” (priority 2014, dated 2021)
